From US20240041042A1, “1-(PYRIDYL)-5-AZINYLPYRAZOLE DERIVATIVES, AND THEIR USE FOR CONTROL OF UNDESIRED PLANT GROWTH” (Bayer Aktiengesellschaft, priority 2020, published 2024)

Legend:
Assay type in all cases: in vivo
[1] = system: Abutilon theophrasti (ABUTH); assay: Pre-emergence herbicidal action against ABUTH; conditions: 100% = plants have died
Outline: (§1)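 Dosages of 320 g/ha or less; pre-emergence; WP or EC in aqueous spray, 0.5% additive, 600 l/ha; greenhouse; visual % effect after ~3 wk relative to control pots.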

[2] = system: Alopecurus myosuroides (ALOMY); assay: Pre-emergence herbicidal action against ALOMY; conditions: scored visually after about 3 weeks, 100% = plants have died
Outline: as §1

[3] = system: Amaranthus retroflexus (AMARE); assay: Pre-emergence herbicidal action against AMARE; conditions: visual scoring after about 3 weeks vs untreated controls
Outline: as §1

Avena fatua (AVEFA) = assay: Pre-emergence herbicidal action against AVEFA; conditions: 320 g/ha, visual scoring after about 3 weeks vs untreated controls
Outline: as §1

[4] = system: Digitaria sanguinalis (DIGSA); assay: Pre-emergence herbicidal action against DIGSA
Outline: as §1

[5] = system: Echinochloa crus-galli (ECHCG); assay: Pre-emergence herbicidal action against ECHCG
Outline: as §1

Lolium rigidum (LOLRI) [6] = assay: Pre-emergence herbicidal action against LOLRI
Outline: as §1

[7] = system: Matricaria inodora (MATIN); assay: Pre-emergence herbicidal action against MATIN
Outline: as §1

[8] = system: Pharbitis purpurea (PHBPU); assay: Pre-emergence herbicidal action against PHBPU
Outline: as §1

[9] = system: Polygonum convolvulus (POLCO); assay: Pre-emergence herbicidal action against POLCO
Outline: as §1

Setaria viridis (SETVI) [10] = assay: Pre-emergence herbicidal action against SETVI
Outline: as §1

[11] = system: Verconica persica (VERPE); assay: Pre-emergence herbicidal action against VERPE; conditions: dosage 320 g/ha
Outline: as §1

Viola tricolor (VIOTR) [12] = assay: Pre-emergence herbicidal action against VIOTR
Outline: as §1

[13] = system: Abutilon theophrasti (ABUTH); assay: Post-emergence herbicidal action against ABUTH; conditions: 320 g/ha, visual rating about 3 weeks after treatment vs untreated controls (100% = plants have died, 0% = like control plants)
Outline: (§2)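 Rates were 320 g/ha or below, applied as aqueous WP/EC spray with 0.5% additive (600 l/ha) onto one-leaf-stage plants. About 3 weeks later in the greenhouse, damage was scored visually against untreated plants on a 0–100% scale, where 100% means plants died.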

[14] = system: Digitaria sanguinalis (DIGSA); assay: Post-emergence herbicidal action against DIGSA; conditions: 320 g/ha, visual rating about 3 weeks after treatment
Outline: as §2

[15] = system: Echinochloa crus-galli (ECHCG); assay: Post-emergence herbicidal action against ECHCG
Outline: as §2

Lolium rigidum (LOLRI) [16] = assay: Post-emergence herbicidal action against LOLRI; conditions: dosage 320 g/ha
Outline: as §2

[17] = system: Matricaria inodora (MATIN); assay: Post-emergence herbicidal action against MATIN; conditions: dosage 320 g/ha
Outline: as §2

[18] = system: Pharbitis purpurea (PHBPU); assay: Post-emergence herbicidal action against PHBPU
Outline: as §2

Setaria viridis (SETVI) [19] = assay: Post-emergence herbicidal action against SETVI; conditions: dosage 320 g/ha
Outline: as §2

Viola tricolor (VIOTR) [20] = assay: Post-emergence herbicidal action against VIOTR; conditions: 320 g/ha
Outline: as §2

Oryza sativa (ORYSA) = conditions: crop plant compatibility, 80 g/ha, effect in comparison to untreated controls
Outline: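 Effects were read visually as % versus untreated controls (0% = no effect, 100% = death) about 3 weeks post-treatment. Application was a post-emergence spray at the one-leaf stage of WP/EC formulations with 0.5% additive at 600 l/ha. Different dosages are denoted a, b and c.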

C[C@@H](Oc1nn(-c2nc(F)ccc2F)c(-c2cncc(F)c2)c1Cl)C(=O)O [Example I-159]
Pre-emergence action against ABUTH ([1]; 80 g/ha, scored visually after about 3 weeks vs untreated controls, 0% = like control plants): 80%
Pre-emergence action against ABUTH ([1]; Dosage column 320 g/ha (title prints 3200 g/ha), scored visually after about 3 weeks): 80%
Pre-emergence action against ALOMY ([2]; 80 g/ha): 80%
Pre-emergence action against ALOMY ([2]; 320 g/ha): 90%
Pre-emergence action against AMARE in % ([3]; 80 g/ha): 90%
Pre-emergence action against AMARE in % ([3]; 320 g/ha): 100%
Pre-emergence action against AVEFA in % (Avena fatua (AVEFA)): 90%
Pre-emergence action against DIGSA in % ([4]; 80 g/ha, visual scoring after about 3 weeks vs untreated controls): 90%
Pre-emergence action against DIGSA in % ([4]; dosage 320 g/ha): 100%
Pre-emergence action against ECHCG in % ([5]; dosage 80 g/ha): 90%
Pre-emergence action against ECHCG in % ([5]; dosage 320 g/ha): 90%
Pre-emergence action against LOLRI in % (Lolium rigidum (LOLRI) [6]; dosage 80 g/ha): 90%
Pre-emergence action against LOLRI in % (Lolium rigidum (LOLRI) [6]; dosage 320 g/ha): 100%
Pre-emergence action against MATIN in % ([7]; dosage 80 g/ha): 90%
Pre-emergence action against MATIN in % ([7]; dosage 320 g/ha): 90%
Pre-emergence action against PHBPU in % ([8]; dosage 80 g/ha): 80%
Pre-emergence action against PHBPU in % ([8]; dosage 320 g/ha): 90%
Pre-emergence action against POLCO in % ([9]; dosage 80 g/ha): 90%
Pre-emergence action against POLCO in % ([9]; dosage 320 g/ha): 90%
Pre-emergence action against SETVI in % (Setaria viridis (SETVI) [10]; dosage 80 g/ha): 90%
Pre-emergence action against SETVI in % (Setaria viridis (SETVI) [10]; dosage 320 g/ha): 100%
Pre-emergence action against VERPE in % [11]: 100%
Pre-emergence action against VIOTR in % (Viola tricolor (VIOTR) [12]; 320 g/ha, Viola tricolor): 100%
Pre-emergence action against VIOTR in % (Viola tricolor (VIOTR) [12]; dosage 80 g/ha): 100%
Post-emergence action against ABUTH in % [13]: 80%
Post-emergence action against DIGSA in % [14]: 80%
Post-emergence action against ECHCG in % ([15]; dosage 80 g/ha): 80%
Post-emergence action against ECHCG in % ([15]; dosage 320 g/ha): 90%
Post-emergence action against LOLRI in % (Lolium rigidum (LOLRI) [16]): 80%
Post-emergence action against MATIN in % [17]: 80%
Post-emergence action against PHBPU in % ([18]; dosage 80 g/ha): 80%
Post-emergence action against PHBPU in % ([18]; dosage 320 g/ha): 80%
Post-emergence action against SETVI in % (Setaria viridis (SETVI) [19]): 80%
Post-emergence action against VIOTR in % (Viola tricolor (VIOTR) [20]): 80%
Post-emergence action against ORYSA in % (Oryza sativa (ORYSA)): 10%
